According to paper PMC6017322, “Triterpene Acids from Frankincense and Semi-Synthetic Derivatives That Inhibit 5-Lipoxygenase and Cathepsin G” (Molecules : A Journal of Synthetic Chemistry and Natural …, 2018):

Key:
5-LO [1] = molecular target: T1, 5-LO (Homo sapiens, UniProt P09917); test: 5-LO product formation in intact human neutrophils stimulated with A23187 (cell-based); design: 5-LO product formation in intact human neutrophils; endogenous in cells; host or cells: freshly isolated human peripheral blood neutrophils; conditions: for IC50: human neutrophils stimulated with A23187; for remaining activity at 10 µM / 5-LO Activity [% Control] cell-based: residual activity at 10 µM, A23187, mean ± SEM, 3–4 experiments; for remaining activity at 10 µM: read-out: 5-LO Activity [% Control] cell-based
T1 sequence (P09917 1-674): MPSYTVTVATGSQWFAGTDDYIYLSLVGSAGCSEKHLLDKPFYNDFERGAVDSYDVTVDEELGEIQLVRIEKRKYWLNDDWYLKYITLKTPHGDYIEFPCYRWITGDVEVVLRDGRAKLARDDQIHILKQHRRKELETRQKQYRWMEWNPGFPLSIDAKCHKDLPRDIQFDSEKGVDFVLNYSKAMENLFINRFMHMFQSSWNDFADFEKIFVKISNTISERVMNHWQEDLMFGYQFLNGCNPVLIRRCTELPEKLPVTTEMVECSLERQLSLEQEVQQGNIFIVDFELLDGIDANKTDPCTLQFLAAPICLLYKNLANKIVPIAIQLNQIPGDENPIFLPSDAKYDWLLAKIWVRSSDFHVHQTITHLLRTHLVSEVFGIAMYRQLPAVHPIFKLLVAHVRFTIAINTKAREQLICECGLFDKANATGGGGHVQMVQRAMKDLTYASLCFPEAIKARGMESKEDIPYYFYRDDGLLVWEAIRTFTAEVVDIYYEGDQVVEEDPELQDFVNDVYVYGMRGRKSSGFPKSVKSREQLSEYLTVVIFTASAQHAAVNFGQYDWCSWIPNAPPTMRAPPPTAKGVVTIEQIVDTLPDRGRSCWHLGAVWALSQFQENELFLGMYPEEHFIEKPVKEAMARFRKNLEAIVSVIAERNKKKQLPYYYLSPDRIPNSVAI
Protocol: Neutrophils were isolated from peripheral blood (University Hospital Tübingen, Germany), collected from fasted healthy adult donors that were informed about the aim of the study and gave written consent. Leukocyte concentrates were obtained by centrifugation (4000× g, 20 min, 20 °C) of heparinized blood preparation, and neutrophils were immediately isolated as described before. Briefly, leukocyte concentrates were subjected to dextran sedimentation and centrifuged on lymphocyte separation medium (LSM 1077, PAA, Coelbe, Germany). For isolation of pelleted neutrophils, remaining erythrocytes were removed by hypotonic lysis, washed twice with ice-cold phosphate-buffered saline (PBS) and finally resuspended in PBS buffer containing 0.1% glucose and CaCl2 (1 mM) (PGC buffer).
5-LO product formation in intact human neutrophils was performed using 5 × 10^6 freshly isolated cells that were resuspended in 1 mL PGC buffer. Cells were pre-incubated with the test compounds or vehicle (0.1% DMSO) at 37 °C for 15 min prior to stimulation with 2.5 µM Ca^2+-ionophore A23187 for 10 min (37 °C). 5-LO product formation was stopped by addition of one volume of ice-cold methanol, samples were subjected to solid phase extraction after addition of 200 ng PGB1 as internal standard, and 5-LO products (LTB4, its trans-isomers and 5-HETE) were analyzed by RP-HPLC as described above.

cathepsin G = molecular target: T2, cathepsin G (Homo sapiens, UniProt P08311); test: Cathepsin G activity in a cell-free assay (Suc-AAPF-pNA substrate); assay type: biochemical; conditions: for Cat. G IC50 / IC50 / remaining activity at 10 µM: cell-free; for Cat. G IC50 / IC50: purified cathepsin G from human neutrophils; for IC50: read-out: Cat. G IC50 (converted); for remaining activity at 10 µM: residual activity at 10 µM, mean ± SEM, 3–4 experiments, read-out: Cat. G Activity [% Control]
T2 construct: purified cathepsin G (0.2 µg) from human neutrophils; purchased Calbiochem; host or cells: human neutrophils (natural source)
T2 sequence (P08311 21-244 limits assumed): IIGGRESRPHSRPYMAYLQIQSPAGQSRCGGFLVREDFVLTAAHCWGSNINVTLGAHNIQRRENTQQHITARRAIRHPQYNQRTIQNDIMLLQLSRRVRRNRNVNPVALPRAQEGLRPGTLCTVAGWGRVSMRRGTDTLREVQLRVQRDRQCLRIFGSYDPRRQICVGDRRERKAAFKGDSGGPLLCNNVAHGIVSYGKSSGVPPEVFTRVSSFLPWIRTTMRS
Protocol: Commercially available purified cathepsin G (0.2 µg) from human neutrophils (Calbiochem, La Jolla, CA, USA) was mixed with test compounds or DMSO (vehicle control) in 200 µL 0.1 M HEPES pH 7.4, 0.5 M NaCl, and 10% DMSO in a 96-well plate (Greiner Bio-One, Frickenhausen, Germany) and pre-incubated for 20 min at 25 °C. Then, N-Suc–Ala–Ala–Pro–Phe–pNA (Suc–AAPF–pNA) (1 mM) as substrate for cathespin G was added, and the absorbance was measured at 410 nm at 25 °C using a Victor^2 plate reader (PerkinElmer, Waltham, MA, USA).

5-LO [2] = molecular target: T1, 5-LO; test: 5-LO activity in a cell-free assay (isolated human recombinant 5-LO, 20 µM arachidonic acid); assay type: biochemical; design: made in house; host or cells: Escherichia coli BL21 (pT3-5-LO plasmid); conditions: for IC50: isolated human 5-LO; for IC50 / remaining activity at 10 µM / 5-LO Activity [% Control] cell-free: 20 µM arachidonic acid; for remaining activity at 10 µM / 5-LO Activity [% Control] cell-free: residual activity at 10 µM, isolated 5-LO, mean ± SEM, 3–4 experiments; for remaining activity at 10 µM: read-out: 5-LO Activity [% Control] cell-free; for inhibition at 10 µM / inhibition of 5-LO activity, cell-free: at 10 µM
Protocol: Human recombinant 5-LO was expressed in Eschericha coli BL21 transformed with pT3-5-LO plasmid at 30 °C overnight, as described elsewhere. Cells were lysed in lysis buffer containing triethanolamine (50 mM, pH 8.0), EDTA (5 mM), phenylmethanesulfonyl fluoride (1 mM), soybean trypsin inhibitor (60 µg/mL), dithiothreitol (2 mM), and lysozyme (1 mg/mL), and homogenized by sonification (3 × 15 s). 5-LO was then purified from 40,000× g supernatant (20 min, 4 °C) using an ATP-agarose column (Sigma-Aldrich, Deisenhofen, Germany), diluted with PBS buffer containing 1 mM EDTA, and immediately used for 5-LO activity assays.
To determine 5-LO activity, aliquots of purified 5-LO (0.5 µg 5-LO in 1 mL PBS plus 1 mM EDTA) were pre-incubated with the test compounds or vehicle (0.1% dimethyl sulfoxide, DMSO) on ice for 15 min, pre-warmed for 30 s at 37 °C in a water bath, and then stimulated with 20 µM AA and CaCl2 2 mM for 10 min at 37 °C. The reaction was stopped with one volume of ice-cold methanol and 5-LO products (including all-trans-isomers of LTB4 and 5-hydroperoxyeicosatetraenoic acid (5-HpETE), as well as its corresponding alcohol 5-hydroxyeicosatetraenoic acid (5-HETE)) were analyzed by reversed phase (RP)-HPLC (Elite LaChrom, VWR, Radnor, PA, USA) as previously described. In brief, acidified PBS and 200 ng of internal PGB1 standard were added and solid phase extraction using C18 RP-columns (100 mg, UCT, Bristol, PA, USA) was performed. After elution with methanol, samples were analyzed by RP-HPLC using a C-18 Radial-PAK column (Waters, Eschborn, Germany).

Row | SMILES | IC50 (5-LO [1]) | remaining activity at 10 µM (5-LO [1]; human neutrophils) | Cat. G IC50 (cathepsin G) | IC50 (cathepsin G) | remaining activity at 10 µM (cathepsin G) | IC50 (5-LO [2]) | remaining activity at 10 µM (5-LO [2]) | inhibition at 10 µM (5-LO [1]; at 10 µM, human neutrophils, read-out: inhibition of 5-LO activity in intact cells) | inhibition at 10 µM (5-LO [2]) | 5-LO Activity [% Control] cell-based (5-LO [1]; human neutrophils) | inhibition of 5-LO activity in intact cells (5-LO [1]; at 10 µM, human neutrophils) | inhibition of 5-LO activity, cell-free (5-LO [2]) | 5-LO Activity [% Control] cell-free (5-LO [2]) | inhibition at 10 µM (cathepsin G; at 10 µM) | inhibition of cathepsin G (cathepsin G; at 10 µM) | fold more potent than AKBA 1 in intact cells (5-LO [1]; human neutrophils, IC50 comparison)
1 | CC(=O)O[C@@H]1CC[C@@]2(C)[C@@H](CC[C@]3(C)[C@@H]2C(=O)C=C2[C@@H]4[C@@H](C)[C@H](C)CC[C@]4(C)CC[C@]23C)[C@@]1(C)C(=O)O [compound 1, 3-O-acteyl-11-keto-β-BA] | 3 µM | 23.1 ± 9.8% | submicromolar | 0.6 µM | 14.8 ± 0.9% | 3 µM | 40.7 ± 10.8% | – | – | – | – | – | – | – | – | –
2 | C[C@H]1[C@H](C)CC[C@]2(C)CC[C@]3(C)C(=CC(=O)[C@@H]4[C@@]5(C)CC[C@@H](O)[C@](C)(C(=O)O)[C@@H]5CC[C@]43C)[C@H]12 [compound 2, 11-keto-β-BA] | 3.5 µM | 25.7 ± 7.3% | – | 4.1 µM | 29.4 ± 3.5% | 4.6 µM | 31.1 ± 5% | – | – | – | – | – | – | – | – | –
3 | C[C@H]1[C@H](C)CC[C@]2(C)CC[C@]3(C)C(=CC[C@@H]4[C@@]5(C)CC[C@@H](O)[C@](C)(C(=O)O)[C@@H]5CC[C@]43C)[C@H]12 [compound 3, β-BA] | – | 53 ± 7.6% | submicromolar | 0.5 µM | 27.7 ± 1.8% | – | 78.7 ± 12.6% | 47% | 21 to 26% | – | – | – | – | – | – | –
4 | CC(=O)O[C@@H]1CC[C@@]2(C)[C@@H](CC[C@]3(C)[C@@H]2CC=C2[C@@H]4[C@@H](C)[C@H](C)CC[C@]4(C)CC[C@]23C)[C@@]1(C)C(=O)O [compound 4, 3-O-acteyl-β-BA] | – | – | – | 2 µM | 28.1 ± 4.9% | – | 73.5 ± 13.3% | – | 21 to 26% | n.i. | – | – | – | – | – | –
5 | C=C(C)[C@@H]1CC[C@]2(C)[C@H](CC=C3[C@@H]4[C@@H](C)[C@H](C)CC[C@]4(C)CC[C@]32C)[C@@]1(C)CCC(=O)O [compound 5] | – | 74.5 ± 3.7% | – | – | 69.8 ± 8% | – | – | – | – | – | hardly active | failed in this respect | n.i. | – | – | –
6 | CC(C)[C@@H]1CC[C@]2(C)[C@H](CC=C3[C@@H]4[C@@H](C)[C@H](C)CC[C@]4(C)CC[C@]32C)[C@@]1(C)CCC(=O)O [compound 6] | – | – | – | – | 70.4 ± 3.9% | – | – | – | – | n.i. | hardly active | failed in this respect | n.i. | – | – | –
7 | CC(C)[C@@H]1CC[C@]2(C)[C@H](C(=O)C=C3[C@@H]4[C@@H](C)[C@H](C)CC[C@]4(C)CC[C@]32C)[C@@]1(C)CCC(=O)O [compound 7] | 4.3 µM | 7.1 ± 3.3% | – | – | 53.8 ± 8.1% | – | 73 ± 8.1% | – | 27% | – | – | – | – | – | – | –
8 | C=C(C)[C@@H]1CC[C@]2(C)CC[C@]3(C)[C@H](CC[C@@H]4[C@@]5(C)CC[C@@H](O)[C@](C)(C(=O)O)[C@@H]5CC[C@]43C)[C@@H]12 [compound 9] | 4 µM | 36.2 ± 5.1% | – | – | 58.1 ± 3.6% | – | 76.6 ± 12.2% | – | – | – | – | did not markedly inhibit 5-LO | – | 27 to 44% | – | –
9 | C=C(C)[C@@H]1CC[C@]2(C)CC[C@]3(C)[C@H](CC[C@@H]4[C@@]5(C)CC[C@@H](OC(C)=O)[C@](C)(C(=O)O)[C@@H]5CC[C@]43C)[C@@H]12 [compound 10] | – | 88.7 ± 6.7% | – | 7.5 µM | 35.9 ± 2.5% | – | – | – | – | – | – | did not markedly inhibit 5-LO | n.i. | > 50% | – | –
10 | C=C(C)[C@@H]1CC[C@]2(CO)CC[C@]3(C)[C@H](CC[C@@H]4[C@@]5(C)CC[C@@H](O)[C@](C)(C(=O)O)[C@@H]5CC[C@]43C)[C@@H]12 [compound 11] | 4.6 µM | 24 ± 7.2% | – | – | 68.1 ± 6.5% | 10 µM | 52.7 ± 7.1% | – | – | – | – | – | – | 27 to 44% | – | –
11 | C=C(C)[C@@H]1CC[C@]2(CO)CC[C@]3(C)[C@H](CC[C@@H]4[C@@]5(C)CC[C@@H](OC(C)=O)[C@](C)(C(=O)O)[C@@H]5CC[C@]43C)[C@@H]12 [compound 12] | 5.1 µM | 28.4 ± 11.1% | – | – | 87.2 ± 2.5% | 8.3 µM | 41.8 ± 3.4% | – | – | – | – | – | – | – | failed to markedly inhibit cathepsin G | –
12 | CC(C)=CCC[C@H](C(=O)O)[C@@H]1CC[C@]2(C)C3=CC[C@H]4C(C)(C)[C@H](O)CC[C@]4(C)[C@H]3CC[C@@]12C [compound 13] | 2.9 µM | 8.2 ± 2.2% | – | – | 72.3 ± 3.6% | – | 89.6 ± 8.5% | – | – | – | – | – | – | 27 to 44% | – | –
13 | CC(C)=CCC[C@H](C(=O)O)[C@@H]1CC[C@]2(C)C3=C(CC[C@@]12C)[C@@]1(C)CC[C@@H](O)C(C)(C)[C@@H]1CC3 [compound 14] | 1.1 µM | 3.1 ± 0.6% | – | – | 73 ± 7.3% | – | 66 ± 15.1% | – | 34% | – | – | – | – | 27 to 44% | – | about 3 fold
